# US8420144B2, “Kokumi-imparting agent, method of using, and compositions containing same” (Ajinomoto Co., Inc., priority 2005, dated 2013)
# Numbered stars: 1 amine (or outer) side, 2 acyl side, 3 side chain; on linkers, the order of the positions; unused ones are H or OH. Square brackets hold non-standard residues; d marks the D form. Ends that are not written are not given here. γGlu = O=C(O)[C@H](CCC(=O)[*:2])N[*:1]; Orn = NCCC[C@H](N)C(=O)O; Abu = CC[C@H](N)C(=O)O
# Biological target: T1, human calcium receptor (Homo sapiens, UniProt P41180)
# T1 construct: expressed in transfected cells; host or cells: Xenopus laevis oocytes microinjected with cRNA; gene amplified by PCR from human kidney cDNA (Clontech)
# T1 sequence (P41180 20-1078): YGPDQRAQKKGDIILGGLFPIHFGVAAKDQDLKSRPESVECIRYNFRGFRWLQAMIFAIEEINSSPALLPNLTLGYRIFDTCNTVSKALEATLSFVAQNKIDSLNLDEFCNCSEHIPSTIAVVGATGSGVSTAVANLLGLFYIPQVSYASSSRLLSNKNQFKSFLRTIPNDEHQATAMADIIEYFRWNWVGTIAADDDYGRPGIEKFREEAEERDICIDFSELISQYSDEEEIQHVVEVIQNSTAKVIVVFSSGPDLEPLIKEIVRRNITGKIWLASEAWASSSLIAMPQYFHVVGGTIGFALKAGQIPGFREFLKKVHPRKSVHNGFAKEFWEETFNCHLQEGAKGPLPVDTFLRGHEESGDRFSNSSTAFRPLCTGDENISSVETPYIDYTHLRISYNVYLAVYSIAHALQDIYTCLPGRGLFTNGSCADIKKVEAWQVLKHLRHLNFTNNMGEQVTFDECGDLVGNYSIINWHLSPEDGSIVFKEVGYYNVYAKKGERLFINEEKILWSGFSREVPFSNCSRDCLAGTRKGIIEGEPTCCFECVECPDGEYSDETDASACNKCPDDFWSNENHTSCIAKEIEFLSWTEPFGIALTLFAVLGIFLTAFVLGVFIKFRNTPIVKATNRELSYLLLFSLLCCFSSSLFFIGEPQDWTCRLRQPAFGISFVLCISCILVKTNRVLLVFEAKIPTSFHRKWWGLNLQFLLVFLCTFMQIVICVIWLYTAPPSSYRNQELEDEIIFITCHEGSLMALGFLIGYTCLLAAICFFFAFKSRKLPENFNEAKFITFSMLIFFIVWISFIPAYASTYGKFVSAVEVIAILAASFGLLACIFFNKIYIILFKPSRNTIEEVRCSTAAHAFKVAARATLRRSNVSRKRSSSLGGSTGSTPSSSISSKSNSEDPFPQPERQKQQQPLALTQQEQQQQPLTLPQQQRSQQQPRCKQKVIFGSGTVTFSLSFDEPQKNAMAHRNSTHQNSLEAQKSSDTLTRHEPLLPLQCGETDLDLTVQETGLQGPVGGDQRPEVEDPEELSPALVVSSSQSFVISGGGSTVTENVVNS
# Test: Calcium receptor activation activity: Ca ion concentration-dependent Cl ionic current in Xenopus laevis oocyte expression system
# Format: cell-based
# Settings: 50 μM peptide; oocytes voltage-clamped at −70 mV
# Method: To evaluate calcium receptor activation activity, a Ca ion concentration-dependent Cl ionic current measuring method using a Xenopus laevis oocyte expression system was used. If each activator is added to Xenopus laevis oocytes expressing the calcium receptor, intracellular Ca ions increase. Then, the Ca ion concentration-dependent Cl channel opens, and the intracellular current value changes as an ionic current. By measuring the change in this intracellular current value, the presence or absence of calcium receptor activation activity can be determined.
# Specifically, the abdomen of Xenopus laevis was opened, and an egg batch was taken out and treated with a 1% collagenase solution at 20° C. for 2 hours to obtain individual oocytes. Into the oocytes, 50 nl of 1 μg/μl receptor cRNA or 50 nl of sterilized water per oocyte was introduced by using a micro glass capillary, and the oocytes were cultured at 18° C. for 2 or 3 days. For the culture, a solution obtained by adding 2 mM pyruvic acid, 10 U/ml of penicillin, and 10 μg/ml of streptomycin to the solution in Example 2 was used. After the culture, a test solution was added to the oocytes containing either the cRNA or sterilized water. Electrophysiological measurement was performed by using an amplifier, Geneclamp500 (Axon), and recording software, AxoScope 9.0 (Axon). The oocytes were voltage-clamped at −70 mV by the double electrode voltage clamp method, and the intracellular current was measured via the Ca ion concentration-dependent Cl ion channel. The maximum value of the intracellular current was considered as the response current value.
# Calcium receptor activation activity of L-amino acids was evaluated by using the method described in Example 13. That is, oocytes containing either cRNA of the calcium receptor or sterilized water were prepared, and voltage-clamped at −70 mV by the double electrode voltage clamp method. To the voltage-clamped oocytes, alanine (10 mM), arginine (10 mM), asparagine (10 mM), aspartic acid (10 mM), cysteine (10 mM), glutamine (10 mM), glutamic acid (10 mM), glycine (10 mM), histidine (10 mM), isoleucine (10 mM), leucine (10 mM), lysine (10 mM), methionine (10 mM), phenylalanine (10 mM), proline (10 mM), serine (10 mM), threonine (10 mM), tryptophan (10 mM), tyrosine (10 mM), valine (10 mM), ornithine (10 mM), taurine (10 mM), or hydroxyproline (10 mM) was added, and Ca ion concentration-dependent Cl response current was measured. […] As for the aforementioned amino acids, the activation activity was reported in Proc. Natl. Acad. Sci. USA, 2000 Apr. 25, 97(9):4814-9.
# Calcium receptor activation activity of D-cysteine was evaluated by using the method described in Example 13. That is, oocytes containing either cRNA of the calcium receptor or sterilized water were prepared, and voltage-clamped at −70 mV by the double electrode voltage clamp method. To the voltage-clamped oocytes, D-cysteine (10 mM), L-cysteine (10 mM), D-tryptophan (10 mM), or L-tryptophan (10 mM) was added, and Ca ion concentration-dependent Cl response current was measured.
# Calcium receptor activation activity of peptides was evaluated by using the method described in Example 13. That is, oocytes containing either cRNA of the calcium receptor or sterilized water were prepared, and voltage-clamped at −70 mV by the double electrode voltage clamp method.
# Calcium receptor activation activity of peptides was evaluated in the same manner as that of Example 17. Each of the peptides shown in Table 2 was added to voltage-clamped oocytes at 1000 μM, 300 μM, 100 μM, 30 μM, 10 μM, 3 μM, 1 μM, 0.3 μM, and 0.1 μM, and Ca ion concentration-dependent Cl response current was measured.
row,Molecule,calcium receptor activation activity (Ca ion concentration-dependent Cl response current)
1,[γGlu]-Ala,definitive calcium receptor activation activity
2,[γGlu]-Thr,definitive calcium receptor activation activity
3,[γGlu]-Val,definitive calcium receptor activation activity
4,Glu-Cys,definitive calcium receptor activation activity
5,N[C@@H](CCC(=O)N[C@@H](CSN=O)C(=O)NCC(=O)O)C(=O)O [γ-Glu-Cys(SNO)-Gly],definitive calcium receptor activation activity
6,[γGlu]-Cys,definitive calcium receptor activation activity

# Same assay, conditions: 500 μM peptide; oocytes voltage-clamped at −70 mV
row,Molecule,calcium receptor activation activity (Ca ion concentration-dependent Cl response current)
1,Gly-Cys,definitive calcium receptor activation activity
2,γ-Glu-Orn,definitive calcium receptor activation activity
3,[γGlu]-Met,definitive calcium receptor activation activity
4,[γGlu]-Gly,definitive calcium receptor activation activity

# Same assay, conditions: 1 mM peptide; oocytes voltage-clamped at −70 mV
row,Molecule,calcium receptor activation activity (Ca ion concentration-dependent Cl response current)
1,Cys-Met,definitive calcium receptor activation activity
2,Asp-Gly,definitive calcium receptor activation activity
3,Cys-Gly,definitive calcium receptor activation activity
4,Leu-Asp,definitive calcium receptor activation activity

# Same assay, conditions: 10 mM amino acid; oocytes voltage-clamped at −70 mV
row,Molecule,calcium receptor activation activity (Ca ion concentration-dependent Cl response current)
1,"N[C@@H](Cc1c[nH]c2ccccc12)C(=O)O [tryptophan, reference compound]",definite calcium receptor activation activity
2,"N[C@@H](CS)C(=O)O [cysteine, reference compound]",definite calcium receptor activation activity
3,"N[C@@H](Cc1ccc(O)cc1)C(=O)O [tyrosine, reference compound]",definite calcium receptor activation activity
4,"N[C@@H](Cc1c[nH]cn1)C(=O)O [histidine, reference compound]",definite calcium receptor activation activity
5,N[C@H](CS)C(=O)O [D-cysteine],definitive calcium receptor activation activity
6,"N[C@@H](Cc1ccccc1)C(=O)O [phenylalanine, reference compound]",definite calcium receptor activation activity

# Same assay, conditions: added at 1000, 300, 100, 30, 10, 3, 1, 0.3 and 0.1 μM
row,Molecule,Activity (lowest concentration for which current was detected)
1,[γGlu]-Val-Ser,30 µM
2,[γGlu]-Val-Asn,30 µM
3,γ-Glu-Cys(S-allyl)-Gly,100 µM
4,γ-Glu-t-Leu,100 µM
5,[γGlu]-Val-Thr,1000 µM
6,[γGlu]-Val-Glu,1000 µM
7,[γGlu]-Val-His,100 µM
8,[γGlu]-Val-Val,1000 µM
9,γ-Glu-Tau,300 µM
10,[γGlu]-Val-Gln,10 µM
11,[γGlu]-Ser-Gly,30 µM
12,[γGlu]-Gly-Gly,30 µM
13,[γGlu]-Val-Phe,30 µM
14,[γGlu]-[γGlu]-Val,1000 µM
15,[γGlu]-Val-Cys,10 µM
16,[γGlu]-Val-Met,1000 µM
17,[γGlu]-Val-Lys,1000 µM
18,γ-Glu-Val-Asp,1000 µM
19,[γGlu]-Val-Arg,1000 µM
20,[γGlu]-Val-[Orn],100 µM
21,γ-Glu-Cys(S-Me)-Gly,3 µM
22,[γGlu]-Val-Pro,30 µM
23,[γGlu]-[Abu]-Gly,3 µM

# Tested on: not listed separately
# Test: Quantitative sensory evaluation test of kokumi-imparting activity in water with sodium glutamate, inosine monophosphate and sodium chloride
# Format: in vivo, human
# Settings: Table 5; 0.1 g/dl; n=3; control 0, glutathione 3 points
# Method: Sample solutions that became acidic after dissolution of the samples were adjusted to pH 6.8 to 7.2 with NaOH before use. Sensory evaluation scores were used for evaluation based on the control sample (0 points) and the glutathione sample (3 points), and the test was performed with n=3.
# The sample solutions that became acidic after dissolution of the samples were adjusted to pH 6.8 to 7.2 with NaOH before use. Sensory evaluation scores were used for evaluation based on the control sample (0 points) and the glutathione sample (3 points), and the test was performed with n=5.
# Sample solutions that became acidic after dissolution of the samples were adjusted to pH 6.8 to 7.2 with NaOH before use. Sensory evaluation scores were used for evaluation based on the control sample (0 points) and the glutathione sample (3 points), and the test was performed with n=12.
Molecule,Intensity of kokumi: Aftertaste,Intensity of kokumi: First and middle taste
[γGlu]-Ala,0.2 points,0.5 points
[γGlu]-Val,1.0 points,3.0 points
[γGlu]-Met,0.4 points,1.5 points

# Same assay, conditions: Table 6; 0.1 g/dl; n=5; control 0, glutathione 3 points
Molecule,Intensity of kokumi: Aftertaste,Intensity of kokumi: First and middle taste
[γGlu]-Val,1.0 points,3.0 points
[γGlu]-Cys,2.0 points,2.0 points

# Same assay, conditions: Table 7; 0.01 g/dl; n=12; control 0, glutathione 3 points
Molecule,Intensity of kokumi: Aftertaste,Intensity of kokumi: First and middle taste
[γGlu]-[Abu]-Gly,2.0 points,3.0 points
